# Assay results published in patent publication US9682079B2, “Composition for treatment of pathogens that are resistant to tetracyclines” (BIOVERSYS AG, priority 2013, dated 2017).
# Test system: TetR/tetO interaction
# Test: DNA/protein (tetO/TetR) interaction assay, FortéBio Octet Red
# Type: binding
# Conditions: % association of TetR to tetO; compound 10 μg/mL & tetracycline 10 ng/mL mix in running buffer; normalized to DMSO control
# Protocol: Biacore Based DNA/Protein (tetO/TetR) Interaction Assay
# The FortéBio technology (FortéBio, Inc., Menlo Park, Calif., USA) is a novel label-free methodology for analyzing macromolecular ligand/capture interactions. The Octet system can be used to measure real-time, label-free analysis of biomolecular interactions and provide information on affinity, kinetics and concentration. The instrument is designed to assay up to eight samples in parallel in 2 min from a standard 96-well micro-plate. The detection technology utilized in the Octet is based on Biolayer Interferometry (BLI). BLI relies on the reflective property of white light and is implemented in the Octet via the use of fiber optic-based biosensors. The biosensors are coated with molecules chosen to capture the targeted ligands. The measurements were performed on an Octet Red system equipped with streptavidin biosensor tips (SA). Tips were purchased from FortéBio.
# Interaction Studies: FortéBio's Octet Red
# Interaction analyses were conducted at 30° C. in running buffer (HBS-P+5 mmol/L MgSO4) unless stated otherwise. (HBS-P buffer: 10 mM Hepes (pH 7.4), 150 mM NaCl, 0.005% (v/v) polysorbate P20, and 5 mmol/L MgSO4; a 10×HBS-P buffer from GE Healthcare was used). Temperature control on the Octet was accomplished by holding the instrument at room temperature so that it could be heated to 30° C. Sensor tips were pre-wet for 10 min in running buffer immediately prior to use, and the micro plates used in the Octet were filled with 200 μl of sample or buffer per well and agitated at 600 rpm. For the experiments commercially available precoated streptavidine tips were used (SA).
# Biotinylated oligos were loaded onto the FortéBio SA fibers in HBS-P buffer pH 7.4. Protein binding experiments were run with HBS-P buffer unless stated otherwise. After each run the tip was regenerated (maximum 4 times) with running buffer containing 0.3% w/v sodium dodecylsulfate (SDS).
# (§1) Correlation of the synergistic effect of compounds of the invention with tetracyclines on bacterial growth inhibition (% growth relative to DMSO; 4 μg/ml tetracyclines and 10 μg/ml compounds of the invention) and TetR/tetO interaction (% association of TetR to tetO relative to DMSO). Bacterial growth was analysed 16 to 20 hours after inoculation according to CLSI guidelines. OD610 was determined with a Tecan Infinite F200 and normalized to the DMSO control. The interaction of TRIC compounds with the TetR protein and the effect on TetR-tetO operator DNA binding was analyzed with a FortéBio's Octet red and normalized to the DMSO control.
row,Compound,Association (% rel. to DMSO) [%]
1,"O=C(NCc1cc(O)ccc1O)c1ccccc1 [Example 1, N-[(2,5-dihydroxyphenyl)methyl]benzamide]",15.84
2,O=C(NCc1cc(O)ccc1O)c1cc(F)cc(F)c1 [Example 2],51.60
3,O=C(NCCc1cc(O)ccc1O)c1ccccc1 [Example 3],63.20
4,O=C(NCc1cc(O)ccc1O)c1ccccc1F [Example 5],30.49
5,O=C(NCc1cc(O)ccc1O)c1cccc(F)c1 [Example 6],25.61
6,O=C(NCc1cc(O)ccc1O)c1cc(F)ccc1O [Example 7],26.83
7,O=C(NCc1cc(O)ccc1O)c1cc(F)ccc1F [Example 8],42.57
8,O=C(NCc1cc(O)ccc1O)c1ccc(C(F)(F)F)cc1 [Example 9],16.22
9,O=C(NCc1cc(O)ccc1O)c1cc(C(F)(F)F)ccc1C(F)(F)F [Example 10],25.68
10,O=C(NCc1cc(O)ccc1O)c1cc(C(F)(F)F)cc(C(F)(F)F)c1 [Example 11],19.59
11,"CCCCC(=O)NCc1ccc(-c2ccccc2)cc1O [Example 12, N-[(2-hydroxy-4-phenyl-phenyl)-methyl]pentanamide]",1.60
12,"CCC(=O)Nc1ccccc1Oc1ccc(Cl)cc1 [Example 14, N-[2-(4-chlorophenoxyl)phenyl]propanamide]",10.26
13,CCCCC(=O)Nc1ccccc1Oc1ccc(Cl)cc1 [Example 15],85.19
14,O=C(CCc1ccccc1)Nc1ccccc1Oc1ccc(Cl)cc1 [Example 16],2.52
15,CC(C)C(=O)NCc1cccc(-c2ccccc2)c1O [Example 17],70.49
16,COc1ccc(OC)c2c1CCC(C(=O)NCC(C)C)C2 (stereo not shown) [Example 18],13.64
17,CC(C)CNC(=O)C1CCc2c(O)ccc(O)c2C1 (stereo not shown) [Example 19],54.02

row,Compound,Association (% rel. to DMSO) [%]
1,"COc1ccc(OC)c2c1CCCC2C(=O)NCC(C)C (stereo not shown) [Example 20, N-isobutyl-5,8-dimethoxy-tetralin-1-carboxamide]",97.40
2,CC(C)CNC(=O)C1CCc2c(O)c3c(c(O)c2C1)C(=O)C=CC3=O (stereo not shown) [Example 22],108.99
3,"O=C(NCc1cc(F)cc(F)c1)C1CCc2c(O)ccc(O)c2C1 (stereo not shown) [Example 23, N-[(3,5-difluorophenyl)methyl]-5,8-dihydroxy-tetralin-2-carboxamide]",22.69
4,O=C(NCc1ccccc1)C1CCc2c(O)ccc(O)c2C1 (stereo not shown) [Example 24],54.12
5,O=C(NCc1cc(C(F)(F)F)cc(C(F)(F)F)c1)C1CCc2c(O)ccc(O)c2C1 (stereo not shown) [Example 25],11.76
6,CN(Cc1ccccc1)C(=O)C1CCc2c(O)ccc(O)c2C1 (stereo not shown) [Example 26],43.52
7,O=C(NCc1ccc(C(F)(F)F)cc1)C1CCc2c(O)ccc(O)c2C1 (stereo not shown) [Example 27],23.15
8,O=C(Nc1nnc(-c2ccc(O)cc2)s1)C1CCc2c(O)ccc(O)c2C1 (stereo not shown) [Example 28],36.62
9,O=C(NCc1ccc(-c2ccccc2)cc1)C1CCc2c(O)ccc(O)c2C1 (stereo not shown) [Example 30],25.35
10,O=C(NCc1cc(F)ccc1O)C1CCc2c(O)ccc(O)c2C1 (stereo not shown) [Example 31],20.42
11,O=C(Nc1ccccc1)C1CCc2c(O)ccc(O)c2C1 (stereo not shown) [Example 32],25.35
12,O=C(NCCCc1ccccc1)C1CCc2c(O)ccc(O)c2C1 (stereo not shown) [Example 33],19.05
13,O=C(NCC1CCCCC1)C1CCc2c(O)ccc(O)c2C1 (stereo not shown) [Example 34],21.09
14,O=C(NCc1cc(F)ccc1F)C1CCc2c(O)ccc(O)c2C1 (stereo not shown) [Example 35],30.61
15,O=C(NCc1ccc(F)cc1F)C1CCc2c(O)ccc(O)c2C1 (stereo not shown) [Example 36],27.89
16,O=C(Nc1ccccc1Oc1ccc(Cl)cc1)C1CCc2c(O)ccc(O)c2C1 (stereo not shown) [Example 37],14.18

# Test system: Antibiotic-resistant staphylococcal, enterococcal, enterobacterial or acinetobacter isolates
# Test: Broth micro-dilution assay in clinical patient isolates, compound in combination with tetracyclines
# Type: cell-based
# Conditions: 4 μg/ml tetracyclines and 10 μg/ml compound; OD610 16 to 20 hours after inoculation, normalized to DMSO control (100%)
# Excerpt: Microdilution Assay in Clinical Patient Isolates
# Broth Micro-Dilution Assay in Cation-Adjusted Mueller-Hinton (CA-MHB)
# The assay protocol is adapted from the Clinical and Laboratory Standards Institute (CLSI) standardized method for broth microdilution. This methodology was used to evaluate the susceptibility of pathogenic clinical isolates towards different antibiotics in combination with a compound of the invention.
# Antibiotic-resistant staphylococcal, enterococcal, enterobacterial or acinetobacter isolates were scraped from fresh Orientation Agar plates, suspended in saline solution with the turbidity adjusted to OD610 of 0.1 (corresponds to 0.5 McFarland scale). Subsequently, the cultures were diluted 160× in CA-MHB medium and a volume of 80 μl was dispensed into each well of a 96 well microtiter plate. Plates were covered and incubated for 16 to 20 hours at 35° C. without shaking. Plates were then visually analyzed, scanned and subsequently the OD610 was determined. Average and standard deviations were calculated from at least two wells with the same condition. Values were normalized to the DMSO control (which is 100%).
# as §1
row,Compound,Growth (% rel. to DMSO) [%]
1,"O=C(NCc1cc(O)ccc1O)c1ccccc1 [Example 1, N-[(2,5-dihydroxyphenyl)methyl]benzamide]",55.20
2,O=C(NCc1cc(O)ccc1O)c1cc(F)cc(F)c1 [Example 2],34.40
3,O=C(NCCc1cc(O)ccc1O)c1ccccc1 [Example 3],41.10
4,O=C(c1cc(O)ccc1O)N1CCN(c2ccccc2)CC1 [Example 4],63.87
5,O=C(NCc1cc(O)ccc1O)c1ccccc1F [Example 5],56.57
6,O=C(NCc1cc(O)ccc1O)c1cccc(F)c1 [Example 6],60.43
7,O=C(NCc1cc(O)ccc1O)c1cc(F)ccc1O [Example 7],56.50
8,O=C(NCc1cc(O)ccc1O)c1cc(F)ccc1F [Example 8],69.68
9,O=C(NCc1cc(O)ccc1O)c1ccc(C(F)(F)F)cc1 [Example 9],25.91
10,O=C(NCc1cc(O)ccc1O)c1cc(C(F)(F)F)ccc1C(F)(F)F [Example 10],47.14
11,O=C(NCc1cc(O)ccc1O)c1cc(C(F)(F)F)cc(C(F)(F)F)c1 [Example 11],26.14
12,"CCCCC(=O)NCc1ccc(-c2ccccc2)cc1O [Example 12, N-[(2-hydroxy-4-phenyl-phenyl)-methyl]pentanamide]",5.76
13,CCC(=O)NCc1cc(OC)c(-c2ccccc2)cc1OC [Example 13],4.74
14,"CCC(=O)Nc1ccccc1Oc1ccc(Cl)cc1 [Example 14, N-[2-(4-chlorophenoxyl)phenyl]propanamide]",18.21
15,CCCCC(=O)Nc1ccccc1Oc1ccc(Cl)cc1 [Example 15],4.88
16,O=C(CCc1ccccc1)Nc1ccccc1Oc1ccc(Cl)cc1 [Example 16],6.15
17,CC(C)C(=O)NCc1cccc(-c2ccccc2)c1O [Example 17],8.11
18,COc1ccc(OC)c2c1CCC(C(=O)NCC(C)C)C2 (stereo not shown) [Example 18],103.70
19,CC(C)CNC(=O)C1CCc2c(O)ccc(O)c2C1 (stereo not shown) [Example 19],11.50

row,Compound,Growth (% rel. to DMSO) [%]
1,"COc1ccc(OC)c2c1CCCC2C(=O)NCC(C)C (stereo not shown) [Example 20, N-isobutyl-5,8-dimethoxy-tetralin-1-carboxamide]",63.75
2,CC(C)CNC(=O)C1CCc2c(c(O)c3ccccc3c2O)C1 (stereo not shown) [Example 21],25.77
3,CC(C)CNC(=O)C1CCc2c(O)c3c(c(O)c2C1)C(=O)C=CC3=O (stereo not shown) [Example 22],61.29
4,"O=C(NCc1cc(F)cc(F)c1)C1CCc2c(O)ccc(O)c2C1 (stereo not shown) [Example 23, N-[(3,5-difluorophenyl)methyl]-5,8-dihydroxy-tetralin-2-carboxamide]",8.15
5,O=C(NCc1ccccc1)C1CCc2c(O)ccc(O)c2C1 (stereo not shown) [Example 24],48.15
6,O=C(NCc1cc(C(F)(F)F)cc(C(F)(F)F)c1)C1CCc2c(O)ccc(O)c2C1 (stereo not shown) [Example 25],90.15
7,CN(Cc1ccccc1)C(=O)C1CCc2c(O)ccc(O)c2C1 (stereo not shown) [Example 26],55.92
8,O=C(NCc1ccc(C(F)(F)F)cc1)C1CCc2c(O)ccc(O)c2C1 (stereo not shown) [Example 27],58.69
9,O=C(Nc1nnc(-c2ccc(O)cc2)s1)C1CCc2c(O)ccc(O)c2C1 (stereo not shown) [Example 28],46.79
10,CC(C)(C)c1ccc(CNC(=O)C2CCc3c(O)ccc(O)c3C2)cc1 (stereo not shown) [Example 29],23.58
11,O=C(NCc1ccc(-c2ccccc2)cc1)C1CCc2c(O)ccc(O)c2C1 (stereo not shown) [Example 30],15.00
12,O=C(NCc1cc(F)ccc1O)C1CCc2c(O)ccc(O)c2C1 (stereo not shown) [Example 31],68.68
13,O=C(Nc1ccccc1)C1CCc2c(O)ccc(O)c2C1 (stereo not shown) [Example 32],58.27
14,O=C(NCCCc1ccccc1)C1CCc2c(O)ccc(O)c2C1 (stereo not shown) [Example 33],16.62
15,O=C(NCC1CCCCC1)C1CCc2c(O)ccc(O)c2C1 (stereo not shown) [Example 34],13.58
16,O=C(NCc1cc(F)ccc1F)C1CCc2c(O)ccc(O)c2C1 (stereo not shown) [Example 35],25.80
17,O=C(NCc1ccc(F)cc1F)C1CCc2c(O)ccc(O)c2C1 (stereo not shown) [Example 36],33.52
18,O=C(Nc1ccccc1Oc1ccc(Cl)cc1)C1CCc2c(O)ccc(O)c2C1 (stereo not shown) [Example 37],10.42
